Measured values as given in US10683311B2 (priority 2015, dated 2020).

Test: log P by HPLC on reversed-phase column (C18), EEC Directive 79/831 Annex V.A8
Assay type: physicochemical
Details: Method A: 40° C., 0.1% aqueous formic acid and acetonitrile
Description: In table 1, the log P values were determined in accordance with EEC Directive 79/831 Annex V.A8 by HPLC (High Performance Liquid Chromatography) on a reversed-phase column (C18), using the methods described below:
Method A: temperature: 40° C.; mobile phases: 0.1% aqueous formic acid and acetonitrile; linear gradient from 10% acetonitrile to 95% acetonitrile;
Method B: temperature: 40° C.; mobile phases: 0.001 molar ammonium acetate solution in water and acetonitrile; linear gradient from 10% acetonitrile to 95% acetonitrile.
Calibration was carried out using unbranched alkan-2-ones (comprising 3 to 16 carbon atoms) with known log P values (determination of the log P values by the retention times using linear interpolation between two successive alkanones). lambda-max-values were determined using UV-spectra from 200 nm to 400 nm and the peak values of the chromatographic signals.

SMILES	logP
Cc1nc2c(F)c(F)ccc2nc1Oc1ccc(F)cc1[Si](C)(C)C [I.100]	5.57
Cc1nc2c(F)c(F)ccc2nc1Oc1ccc(Cl)cc1[Si](C)(C)C [I.101]	6.11
Cc1nc2c(F)c(F)ccc2nc1Oc1ccc(Cl)cc1[Si](C)(C)O [I.102]	4.01
Cc1nc2c(F)c(F)ccc2nc1Oc1c(Cl)cccc1[Si](C)(C)O [I.103]	3.96
Cc1cccc([Si](C)(C)O)c1Oc1nc2ccc(F)c(F)c2nc1C [I.104]	3.73
Cc1nc2c(F)c(F)ccc2nc1Oc1cc(F)ccc1[Si](C)(C)O [I.105]	3.58
Cc1nc2c(F)c(F)ccc2nc1Oc1c(Cl)cccc1[Si](C)(C)C [I.106]	6.07
Cc1cccc([Si](C)(C)C)c1Oc1nc2ccc(F)c(F)c2nc1C [I.107]	5.88
Cc1nc2c(F)c(F)ccc2nc1Oc1cc(F)ccc1[Si](C)(C)C [I.108]	5.57
Cc1nc2ccccc2nc1Oc1cccc(F)c1[Si](C)(C)O [I.109]	3.25
Cc1nc2ccccc2nc1Oc1ccccc1[Si](C)(C)C [I.110]	5.31
Cc1nc2ccccc2nc1Oc1cccc(F)c1[Si](C)(C)C [I.111]	5.45
Cc1nc2ccccc2nc1Oc1ccccc1[Si](C)(C)O [I.112]	3.01
Cc1nc2ccccc2nc1Oc1cccc(F)c1[Si](C)(C)c1cccs1 [I.113]	5.51
COc1ccc([Si](C)(C)c2c(F)cccc2Oc2nc3ccccc3nc2C)cc1 [I.114]	5.35
Cc1nc2ccccc2nc1Oc1cccc(F)c1[Si](C)(C)c1ccccc1 [I.115]	5.59
C[Si](C)(O)c1c(F)cccc1Oc1cnc2ccsc2c1 [I.117]	2.80
C[Si](C)(C)c1c(F)cccc1Oc1cnc2ccsc2c1 [I.118]	5.22
C[Si](C)(O)c1c(F)cccc1Oc1cnc2sccc2c1 [I.119]	3.09
C[Si](C)(C)c1c(F)cccc1Oc1cnc2sccc2c1 [I.120]	5.45
C[Si](C)(O)c1c(F)cccc1Oc1cnc2ccnn2c1 [I.121]	2.07
C[Si](C)(C)c1c(F)cccc1Oc1cnc2ccnn2c1 [I.122]	4.23

SMILES	logP
C[Si](C)(C)c1ccccc1Oc1cnc2ccnn2c1 [I.123]	4.11
C[Si](C)(C)c1ccccc1Oc1cnc2nccn2c1 [I.124]	2.78
C[Si](C)(O)c1ccccc1Oc1cnc2nccn2c1 [I.125]	2.10
C[Si](C)(O)c1ccccc1Oc1cnc2c(F)cnn2c1 [I.126]	2.50
C[Si](C)(O)c1c(F)cccc1Oc1cnc2c(F)cnn2c1 [I.127]	2.60
C[Si](C)(C)c1c(F)cccc1Oc1cnc2c(F)cnn2c1 [I.128]	4.61
C[Si](C)(C)c1ccccc1Oc1cnc2c(F)cnn2c1 [I.129]	4.56
Cc1c(Cc2ccccc2[Si](C)(C)C)cnc2ccccc12 [I.130]	3.19
C[Si](C)(C)c1c(F)cccc1Sc1cnc2ccccc2c1 [I.131]	5.72
C[Si](C)(C)c1c(F)cccc1[S+]([O-])c1cnc2ccccc2c1 (stereo not drawn) [I.132]	3.63
C[Si](C)(C)c1c(F)cccc1C(O)c1cnc2ccccc2c1 (stereo not drawn) [I.133]	4.16
Cc1nc2ccccc2cc1Oc1ccc(Cl)cc1[Si](C)(C)C [I.134]	5.68
Cc1nc2ccccc2cc1Oc1ccc(-c2ccccc2)cc1[Si](C)(C)C [I.135]	6.27
Cc1nc2ccccc2cc1Oc1ccc(C2CC2)cc1[Si](C)(C)C [I.136]	5.68
C=Cc1ccc(Oc2cc3ccccc3nc2C)c([Si](C)(C)C)c1 [I.137]	5.51
Cc1nc2ccccc2cc1Oc1ccc(-c2ccsc2)cc1[Si](C)(C)C [I.138]	5.85
Cc1nc2ccccc2cc1Cc1ccccc1[Si](C)(C)C [I.139]	2.76
Cc1nc2ccccc2cc1Cc1ccccc1[Si](C)(C)c1ccccc1 [I.140]	2.88
C[Si](C)(c1ccccc1)c1ccccc1Cc1cnc2cccnc2c1 [I.141]	4.14
C[Si](C)(Cc1ccccc1)c1ccccc1Cc1cnc2ccccc2c1 [I.142]	4.94
C[Si](C)(c1ccc(Cc2ccccc2)cc1)c1ccccc1Cc1cnc2ccccc2c1 [I.143]	5.78
Cc1nc2ccccc2cc1Oc1cccc(OC(F)(F)F)c1Br [IIa.25]	4.30

Same assay, conditions: logP Method A

SMILES	logP
Cc1nc2c(F)c(F)ccc2cc1Oc1cc([N+](=O)[O-])ccc1Br [II.06A]	4.04

Same assay, conditions: reversed-phase HPLC column (C18), Method A: 40° C., 0.1% aqueous formic acid and acetonitrile

SMILES	chromatographic logP
Fc1cccc(Oc2cnc3ccccc3c2)c1I [IIa.01, 3-(3-fluoro-2-iodophenoxy)quinoline]	3.71
Ic1ccccc1Oc1cnc2ccccc2c1 [IIa.02, 3-(2-iodophenoxy)quinoline]	3.71
Brc1ccccc1Oc1cnc2ccccc2c1 [IIa.03, 3-(2-bromophenoxy)quinoline]	3.47
Fc1cccc2cc(Oc3ccccc3Br)cnc12 [IIa.04, 3-(2-bromophenoxy)-8-fluoroquinoline]	3.61
Cc1nc2c(F)cccc2cc1Oc1ccccc1Br [IIa.05, 3-(2-bromophenoxy)-8-fluoro-2-methylquinoline]	3.96
Fc1ccc2cc(Oc3ccccc3Br)cnc2c1F [IIa.06, 3-(2-bromophenoxy)-7,8-difluoroquinoline]	3.92
Cc1nc2c(F)c(F)ccc2cc1Oc1ccccc1Br [IIa.07, 3-(2-bromophenoxy)-7,8-difluoro-2-methylquinoline]	4.25
Cc1nc2ccccc2cc1Oc1ccccc1Br [IIa.08, 3-(2-bromophenoxy)-2-methylquinoline]	3.96
Cc1nc2c(F)c(F)ccc2cc1Oc1c(F)cccc1Br [IIa.09, 3-(2-bromo-6-fluorophenoxy)-7,8-difluoro-2-methylquinoline]	4.25
Cc1nc2c(F)c(F)ccc2cc1Oc1cc(F)ccc1Br [IIa.10, 3-(2-bromo-5-fluorophenoxy)-7,8-difluoro-2-methylquinoline]	4.34
Fc1ccc(Oc2cnc3c(Cl)cccc3c2)c(Br)c1 [IIa.11, 3-(2-bromo-4-fluorophenoxy)-8-chloroquinoline]	4.18
Cc1nc2c(F)c(F)ccc2cc1Oc1ccc(F)cc1Br [IIa.12, 3-(2-bromo-4-fluorophenoxy)-7,8-difluoro-2-methylquinoline]	4.25
Cc1nc2ccccc2cc1Oc1ccc(F)cc1Br [IIa.13, 3-(2-bromo-4-fluorophenoxy)-2-methylquinoline]	3.35
COc1cccc(Oc2cc3ccc(F)c(F)c3nc2C)c1Br [IIa.14, 3-(2-bromo-3-methoxyphenoxy)-7,8-difluoro-2-methylquinoline]	4.11
Fc1cccc(Oc2cnc3c(F)c(F)ccc3c2)c1Br [IIa.15, 3-(2-bromo-3-fluorophenoxy)-7,8-difluoroquinoline]	3.9
Cc1nc2c(F)c(F)ccc2cc1Oc1cccc(F)c1Br [IIa.16, 3-(2-bromo-3-fluorophenoxy)-7,8-difluoro-2-methylquinoline]	4.29
Cc1c(Oc2cccc(F)c2Br)cnc2ccccc12 [IIa.17, 3-(2-bromo-3-fluorophenoxy)-4-methylquinoline]	3.89
Cc1nc2ccccc2cc1Oc1cccc(F)c1Br [IIa.18, 3-(2-bromo-3-fluorophenoxy)-2-methylquinoline]	3.58
Fc1cccc(Oc2cc3ccccc3nc2C(F)F)c1Br [IIa.19, 3-(2-bromo-3-fluorophenoxy)-2-(difluoromethyl)quinoline]	3.99
Cc1nc2c(F)c(F)ccc2cc1Oc1cccc(Cl)c1Br [IIa.20, 3-(2-bromo-3-chlorophenoxy)-7,8-difluoro-2-methylquinoline]	4.72
Cc1nc2ccccc2cc1Oc1cccc(Cl)c1Br [IIa.21, 3-(2-bromo-3-chlorophenoxy)-2-methylquinoline]	3.99
Fc1cccc(Nc2cc3ccccc3nc2C(F)F)c1Br [IIa.22, N-(2-bromo-3-fluorophenyl)-2-(difluoromethyl)quinolin-3-amine]	4.34
Fc1ccc(Oc2cnc3c(Cl)cccc3c2)c(Cl)c1 [IIa.23, 8-chloro-3-(2-chloro-4-fluorophenoxy)quinoline]	4.11
Cc1nc2c(F)c(F)ccc2cc1Oc1cccc(OC(F)(F)F)c1Br [IIa.24, 3-[2-bromo-3-(trifluoromethoxy)phenoxy]-7,8-difluoro-2-methylquinoline]	4.9
Cc1nc2ccccc2cc1Oc1ccc(Cl)cc1Br [IIa.26, 3-(2-bromo-4-chlorophenoxy)-2-methylquinoline]	4.13

Same assay, conditions: reversed-phase HPLC column (C18), Method B: 40° C., 0.001 molar ammonium acetate solution in water and acetonitrile

SMILES	chromatographic logP
Brc1c(COC2CCCCO2)cccc1Nc1cnc2ccccc2c1 (stereo not drawn) [II.04A, N-{2-bromo-3-[(tetrahydro-2H-pyran-2-yloxy)methyl]phenyl}quinolin-3-amine]	4.13

Same assay, conditions: reversed-phase HPLC column (C18), logP Method A

SMILES	chromatographic logP
O=Cc1cccc(Oc2cnc3ccccc3c2)c1I [II.01A]	3.29
O=Cc1cccc(Oc2cnc3c(F)c(F)ccc3n2)c1Br [II.01B]	3.48
OCc1cccc(Oc2cnc3ccccc3c2)c1I [II.02A]	2.59
Cc1nc2ccccc2cc1Oc1cccc(CCO)c1Br [II.03A]	2.14
Cc1nc2ccccc2cc1Oc1cccc(CCCl)c1Br [II.08A]	3.99

Same assay, conditions: reversed-phase HPLC column (C18), logP Method B

SMILES	chromatographic logP
Brc1c(COC2CCCCO2)cccc1Nc1cnc2ccccc2c1 (stereo not drawn) [II.04A, N-{2-bromo-3-[(tetrahydro-2H-pyran-2-yloxy)methyl]phenyl}quinolin-3-amine]	4.13
Ic1c(COC2CCCCO2)cccc1Oc1cnc2ccccc2c1 (stereo not drawn) [II.05A]	4.56
